The values that follow come from article PMC7170861, “The TIPE Molecular Pilot That Directs Lymphocyte Migration in Health and Inflammation” (Scientific Reports, 2020).

What all share (experiment): SPR, lipid vesicles on L1 chip, steady-state fit
Common to all, as to conditions: 10% (mole/mole) lipid in DOPC vesicles; HBS pH 7.4; 25 °C

The target of one assay is T1, GRP1-PH.
T1 construct: gene CYTH3; N-terminal 6His-SUMO tag cleaved off; E. coli BL21(DE3)
An excerpt: SPR, lipid vesicles on L1 chip, steady-state fit on GRP1-PH | Purified PLCδ-PH and GRP1-PH domains were used as positive controls

A further assay deals with T2, TNFAIP8 (Mus musculus, UniProt Q921Z5).
T2 construct: isoform 1; pET-SUMO, N-terminal 6His-SUMO tag cleaved off by SUMO protease; E. coli BL21(DE3); untagged native protein
T2 sequence (Q921Z5 1-198): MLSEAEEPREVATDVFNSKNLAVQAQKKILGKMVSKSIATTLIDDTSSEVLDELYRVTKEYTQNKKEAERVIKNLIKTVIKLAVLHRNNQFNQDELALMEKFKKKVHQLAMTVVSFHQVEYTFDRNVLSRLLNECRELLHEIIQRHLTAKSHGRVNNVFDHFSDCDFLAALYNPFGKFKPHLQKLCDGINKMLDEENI
Type of assay: binding.

Another assay deals with T3, PLCδ-PH.
T3 construct: gene PLCD1; N-terminal 6His-SUMO tag cleaved off; E. coli BL21(DE3)
The source says:
SPR, lipid vesicles on L1 chip, steady-state fit on PLCδ-PH | Purified PLCδ-PH and GRP1-PH domains were used as positive controls

In the case of PtdIns(3,4,5)P3, the Kd at GRP1-PH was 980 ± 690 nM; at TNFAIP8 it was 4060 nM.
As for PtdIns(4,5)P2, the Kd on PLCδ-PH came to 2100 ± 1550 nM; on TNFAIP8 it was 3160 nM.
